According to patent US8906825B2, “Herbicidal compositions comprising 4-amino-3-chloro-5-fluoro-6-(4-chloro-2-fluoro-3-methoxyphenyl) pyridine-2-carboxylic acid or a derivative thereof and triazolopyrimidine sulfonamides” (Dow AgroSciences LLC, priority 2012, dated 2014):

Columns and labels:
Assay type in all cases: in vivo
[1] = system: BRAPP (Brachiaria platyphylla (Griseb.) Nash, broadleaf signalgrass); test: Postemergence foliar-applied herbicidal mixtures, direct seeded rice, greenhouse (Example I); conditions: Flumetsulam 6.25 gai/ha
Source text: (§1) Seeds or nutlets of the desired test plant species were planted in a soil matrix prepared by mixing a loam or sandy loam soil (e.g., 28.6 percent silt, 18.8 percent clay, and 52.6 percent sand, with a pH of about 5.8 and an organic matter content of about 1.8 percent) and calcareous grit in an 80 to 20 ratio. The soil matrix was contained in plastic pots with a volume of 1 quart and a surface area of 83.6 square centimeters (cm^2). When required to ensure good germination and healthy plants, a fungicide treatment and/or other chemical or physical treatment was applied. The plants were grown for 8-22 days in a greenhouse with an approximate 14 h photoperiod which was maintained at about 29° C. during the day and about 26° C. during the night. Nutrients (Peters Excel® 15-5-15 5-Ca 2-Mg and iron chelate) were applied in the irrigation solution as needed and water was added on a regular basis. Supplemental lighting was provided with overhead metal halide 1000-Watt lamps as necessary. The plants were employed for testing when they reached the first through fourth true leaf stage.
(§2) Treatments consisted of the acid or esters of 4-amino-3-chloro-5-fluoro-6-(4-chloro-2-fluoro-3-methoxy-phenyl)pyridine-2-carboxylic acid (Compound A), each formulated as an SC (suspension concentrate), and various herbicidal components alone and in combination. Forms of compound A were applied on an acid equivalent basis.
(§3) Other herbicidal components were applied on an active ingredient basis and included acetolactate synthase (ALS)-inhibiting herbicides (sulfonamide chemical class) penoxsulam formulated as Grasp® SC, diclosulam formulated as Strongarm®, and cloransulam-methyl formulated as FirstRate®, flumetsulam formulated as Flumetsulam WG, and metosulam formulated as Eclipse®.
(§4) Treatment requirements were calculated based upon the rates being tested, the concentration of active ingredient or acid equivalent in the formulation, and a 12 mL application volume at a rate of 187 L/ha.
(§5) For treatments comprised of formulated compounds, measured amounts of compounds were placed individually in 25 mL glass vials and diluted in a volume of 1.25% (v/v) Agri-Dex® crop oil concentrated to obtain 12× stock solutions. […] Application solutions were prepared by adding an appropriate amount of each stock solution (e.g., 1 mL) and diluted to the appropriate final concentrations with the addition of 10 mL of an aqueous mixture of 1.25% (v/v) crop oil concentrate so that the final spray solutions contained 1.25+/−0.05% (v/v) crop oil concentrate.
(§6) All stock solutions and applications solutions were visually inspected for compound compatibility prior to application. Spray solutions were applied to the plant material with an overhead Mandel track sprayer equipped with an 8002E nozzle calibrated to deliver 187 L/ha over an application area of 0.503 m^2 at a spray height of 18 to 20 inches (46 to 50 cm) above average plant canopy height. Control plants were sprayed in the same manner with the solvent blank.
(§7) The treated plants and control plants were placed in a greenhouse as described above and watered by sub-irrigation to prevent wash-off of the test compounds. After approximately 3 weeks, the condition of the test plants as compared with that of the untreated plants was determined visually and scored on a scale of 0 to 100 percent where 0 corresponds to no injury or growth inhibition and 100 corresponds to complete kill.
(§8) Colby's equation was used to determine the herbicidal effects expected from the mixtures (Colby, S. R. 1967. Calculation of the synergistic and antagonistic response of herbicide combinations. Weeds 15:20-22.).
(§9) The following equation was used to calculate the expected activity of mixtures containing two active ingredients, A and B: Expected=A+B−(A×B/100)

[2] = system: CYPIR (Cyperus iria L., rice flatsedge); test: as above
Source text: as §1, §2, §3, §4, §5, §6, §7, §8, §9

[3] = system: LEFCH (Leptochloa chinensis (L.) Nees, Chinese sprangletop); test: as above; conditions: Metosulam 6.25 gai/ha
Source text: as §1, §2, §3, §4, §5, §6, §7, §8, §9

[4] = system: CIRAR (Cirsium arvense (L.) Scop., Canada thistle); test: Postemergence foliar-applied herbicidal mixtures, cereal crops, greenhouse (Example III); conditions: Pyroxsulam 3.75 gai/ha, visual score 0 to 100 percent after 20-22 days
Description: Seeds of the desired test plant species were planted in Sun Gro MetroMix® 306 planting mixture, which typically has a pH of 6.0 to 6.8 and an organic matter content of about 30 percent, in plastic pots with a surface area of 103.2 square centimeters (cm^2). […] The plants were grown for 7-36 days in a greenhouse with an approximate 14 hour photoperiod which was maintained at about 18° C. during the day and about 17° C. during the night. Nutrients and water were added on a regular basis and supplemental lighting was provided with overhead metal halide 1000-Watt lamps as necessary. The plants were employed for testing when they reached the second or third true leaf stage.
Treatments consisted of the benzyl ester of 4-amino-3-chloro-5-fluoro-6-(4-chloro-2-fluoro-3-methoxy-phenyl)pyridine-2-carboxylic acid (Compound A), formulated as an SC, a second cereal herbicide alone and then both in combination.
Other herbicidal components were applied on an active ingredient basis and included acetolactate synthase (ALS)-inhibiting herbicides (sulfonamide chemical class) florasulam formulated as Derby® and pyroxsulam formulated as PowerFlex®. A measured aliquot of benzyl ester of 4-amino-3-chloro-5-fluoro-6-(4-chloro-2-fluoro-3-methoxy-phenyl)pyridine-2-carboxylic acid (Compound A) was placed in 25 milliliter (mL) glass vials and diluted in a volume of 1.25% (v/v) AgriDex® crop oil concentrated to obtain a stock solution. Compound requirements are based upon a 12 mL application volume at a rate of 187 liters per hectare (L/ha). […] Formulated compounds were applied to the plant material with an overhead Mandel track sprayer equipped with an 8002E nozzle calibrated to deliver 187 L/ha over an application area of 0.503 square meters (m^2) at a spray height of 18 inches (46 cm) above average plant canopy. Control plants were sprayed in the same manner with the solvent blank.
as §7, with “20-22 days,” for “approximately 3 weeks,”, “control” for “untreated”, “injury” for “injury or growth inhibition”
as §8, §9

In the case of `Cc1ccn2nc(S(=O)(=O)Nc3c(F)cccc3F)nc2n1` [Flumetsulam, N-(2,6-difluorophenyl)-5-methyl[1,2,4]triazolo[1,5-a]pyrimidine-2-sulfonamide, reference compound], the “Visual Weed Control (%) - 22 DAA BRAPP Obs” value [1] is reported as 30%, the “Visual Weed Control (%) - 22 DAA CYPIR Obs” value ([2]; Flumetsulam 6.25 gai/ha) is reported as 20% and the “Visual Weed Control (%) - 22 DAA CYPIR Obs” value ([2]; Flumetsulam 12.5 gai/ha) is reported as 55%. The “Visual Weed Control (%) - 22 DAA CYPIR Obs” value ([2]; Flumetsulam 25 gai/ha) was 30%.

For `COc1cc(OC)n2nc(S(=O)(=O)Nc3c(Cl)ccc(C)c3Cl)nc2n1` [Metosulam, N-(2,6-dichloro-3-methylphenyl)-5,7-dimethoxy[1,2,4]triazolo[1,5-a]pyrimidine-2-sulfonamide, reference compound], the “Visual Weed Control (%) - 22 DAA LEFCH Obs” value [3] was 15%.

`COc1cc(OC)n2nc(NS(=O)(=O)c3c(C(F)(F)F)ccnc3OC)nc2n1` [Pyroxsulam, N-(5,7-dimethoxy[1,2,4]triazolo[1,5-a]pyrimidin-2-yl)-2-methoxy-4-(trifluoromethyl)-3-pyridinesulfonamide, reference compound] was tested, and the “CIRAR Obs” value [4] was 60%.
